Experimental data taken from ChEMBL document CHEMBL1146578, “10-Methoxydihydrofuscin, fuscinarin, and fuscin, novel antagonists of the human CCR5 receptor from Oidiodendron griseum” (J Nat Prod, 2003).

Each compound was assayed against C-C chemokine receptor type 5 (Homo sapiens, UniProt P51681) (assay: Displacement of [125I]human-MIP1-alpha from human CCR5 receptor expressed in CHO cells by SPA).
Chain of C-C chemokine receptor type 5 (P51681 whole entry): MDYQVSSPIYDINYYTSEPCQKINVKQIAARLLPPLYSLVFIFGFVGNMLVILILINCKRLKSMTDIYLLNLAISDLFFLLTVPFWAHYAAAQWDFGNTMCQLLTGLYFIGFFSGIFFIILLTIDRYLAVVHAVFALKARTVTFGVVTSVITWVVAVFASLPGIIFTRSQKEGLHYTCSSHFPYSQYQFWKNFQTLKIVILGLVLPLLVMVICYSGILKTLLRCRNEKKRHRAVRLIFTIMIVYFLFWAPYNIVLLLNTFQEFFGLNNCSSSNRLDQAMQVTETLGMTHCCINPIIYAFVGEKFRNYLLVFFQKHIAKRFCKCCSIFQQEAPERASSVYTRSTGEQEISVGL
Type: cell-based
`COC1C(=O)OC(C)c2c(O)c(O)c3c(c21)CCC(C)(C)O3` (stereo not drawn) showed an IC50 of 154 µM.
With `CC1OC(=O)C=C2C3=C(OC(C)(C)CC3)C(=O)C(O)=C21` (stereo not drawn) [FUSCIN] the IC50 was 21 µM.
Compound `CC1OC(=O)c2c3c(c(O)c(O)c21)OC(C)(C)CC3` (stereo not drawn) [FUSCINARIN] has an IC50 of 80 µM.
